From patent US10987345B2, “Method for assessing the efficacy of IMiDs and composition or combination for use in treating IMiD sensitive diseases” (Klinikum Rechts Der Isar Der Technischen Universitat Munchen, priority 2014, dated 2021)

Experiments:
VEGF = VEGF secretion in MM cell culture supernatants (ELISA); assay type: cell-based, human; conditions: 10 μM, 96 h
Text: (§1) Supernatants were collected and snap-frozen for subsequent analysis. VEGF and MMP7 concentrations were, determined in an enzyme linked immunosorbent assay (ELISA) using kits RAB0507, and RAB0369 (VEGF and MMP7 respectively, both Sigma) according to the manufacturer's instructions. Results were normalized to protein concentration of corresponding cell lysates.

CD147 [1] = experiment: Pulse chase analysis of CD147 protein maturation in MM1S cells; assay type: cell-based, human; conditions: 35S-Met/Cys pulse-chase
Method: In a complementary approach using pulse-chase analysis, CD147 protein maturation from the immature core-glycosylated to the mature high-glycosylated form necessary for membrane localization was investigated. […] Importantly, treatment with MLN4924, an inhibitor of Cullin-RING ubiquitin ligases, had no effect on CD147 stability or processing, thereby further underscoring a ubiquitin-independent effect of CRBN on CD147 (FIG. 13h).
Labelling of MM1S cells with ^35S-Met/Cys was essentially performed as described previously. […] Newly translated proteins were metabolically labeled for 45 Minutes with methionine- and cysteine-free DMEM containing 0.2 mCi/ml [35S]-Met/Cys. Cells were then washed three times with PBS (37° C.) and incubated with DMEM for up to 24 hours.

CD147/MCT1 complex = experiment: Immunoblot analysis of CD147 and MCT1 protein levels in myeloma cells; assay type: cell-based, human; conditions: for Destabilization of CD147/MCT1: 100 nM pomalidomide, 100 μM thalidomide
Method: HEK 293T and HeLa cells were grown in Dulbecco's modified Eagle's Medium (DMEM), each media containing 10% fetal bovine serum. (FBS). The human multiple myeloma cell lines MM1.S, U266, KMS-12-BM, RPMI 8226 and JJN3 were cultured in RPMI-1640 with 10% FBS. […] Sf9 insect cells (Life technologies) were cultured in Sf-900 II serum-free medium (SFM, Life technologies) supplemented with 10% heat-inactivated FBS and 10 μg/ml gentamycin. High Five cells (Invitrogen) were cultured in Express Five SFM supplemented with 10 mM L-glutamine and 10 μg/ml gentamycin. All cells tested mycoplasma negative by a PCR detection method.
Cell samples were lysed in lysis buffer (NaCl 150 mM, Tris-HCl 50 mM, MgCl2 5 mM, EDTA 1 mM, INP-40 0.1%, Glycerol 5% and inhibitors) for whole cell lysates, immunoprecipitations or pulldown experiments. Details of extract preparation, immunoprecipitation, and immunoblotting, were previously described. Briefly, the cellular lysates were centrifuged 15 min at 14 000 rpm at 4° C. to separate from cellular debris. Protein concentration in the supernatants was measured before Laemmli buffer was added. The lysates were separated by SDS-PAGE and blotted onto PVDF (polyvinylidene difluoride) membranes. After blotting, PVDF membranes were stained With. Ponceau solution to evaluate protein loading. After washing and blocking unspecific bindings in 5% milk; the membranes were incubated with primary antibodies. After addition of horseradish peroxidase coupled secondary antibodies, western blot membranes were developed using the ECL (enhanced chemoluminescence) method (SuperSignal West reagents from Thermo Scientific). For immunoprecipitations (IPs), cell lysates were incubated with Flag-M2 agarose beads (Sigma) for Flag-IPs, HA-7 agarose beads (Sigma) for HA-IPs, or protein-A sepharose beads (GE Healthcare) together with primary rabbit antibodies for binding of endogenous proteins (e.g. for CRBN-IP). For the experiments using a protein cross linker, DSS (Pierce) was added to the cells to a final concentration of 1 mM for 45 minutes at RT. The Cross linker was quenched by addition of Tris-HCl, pH 7.5 20 mM and cell lysis was performed as described, with the only exception of HEPES buffer 50 mM, pH 7.5 instead of Tris-HCl buffer. After washing the beads four times in lysis buffer, Laemmli buffer was added and proteins were analyzed by SDS-electrophoresis.

MM cell lines [2] = experiment: Intra- and extracellular lactate measurement in MM cells; assay type: cell-based, human
Method: For analysis of intra- and extracellular lactate, lenalidomide or DMSO treated cells were centrifuged down. For extracellular lactate, the supernatant was collected and frozen; normal cell culture medium was used as control for normalization. For measurement of intracellular lactate, cell pellets were lysed in lysis buffer. Lactate content in cell lysates as well as in the supernatants were analysed with the cobas 8000 (Roche).

CD147 [3] = experiment: Flow cytometry of CD147 cell surface expression in MM1S cells; assay type: cell-based, human; conditions: lenalidomide 10 μM
Method: The secondary antibody was […] anti mouse IgG. After washing, stained cells were analysed for CD147 expression using a FACSCalibur (Becton Dickinson).

CD147 [4] = experiment: CD147 surface expression on erythropoiesis in MDS patient bone marrow (flow cytometry); assay type: in vivo, human; conditions: del(5q) MDS patients on lenalidomide treatment vs untreated del(5q) and non-del(5q) MDS
Text: After informed consent, bone marrow samples from patients with MDS were collected in heparin, lysed with Versalyse® (Beckman Coulter, Krefeld, Germany), stained with anti-human monoclonal fluorochrome-conjugated antibodies and analyzed by flow-cytometry on a Cytomics FC 500 analyzer (Beckman Coulter). The following antibodies were used: Beckman Coulter: CD45-ECD (clone J33), CD33-PE (clone D3HL60.251), CD14-PECy5 (clone RM052), CD7-PE (clone 8H8.1), CD3-PECy5 (clone UCHT1), CD19-PECy7 (clone J4,119), CD7-PE, GlyA-PE (clone 11E4B-7-6), CD34-PECy7 (clone 581) and CD147-FITC (clone HIM6) from BD Biosciences. Using a CD45 vs, SSC gating strategy monocytes, lymphocytes, granulocytes, progenitor cells and CD45low/-GlyA+ cells were identified, Gates were then placed on CD19+ B-cells, CD3+ and CD3-CD7+ NK cells within the lymphocyte gate; on CD33+ granulocytes and CD14+ monocytes; on CD45low/CD33+ CD34+ progenitor cells and on CD45low/-GlyA+ erythropoiesis. CD147 expression of CD45low/-GlyA+ erythropoiesis was then determined by histogram gating. Data are represented as median fluorescence intensity of CD147 relative to isotype-matched control. Data were analyzed using Kaluza® Flow Analysis Software (Beckman Coulter).

MM cell lines [5] = experiment: Cell proliferation / survival of MM cells (trypan blue exclusion); assay type: cell-based, human; conditions: sensitive cells (MM1S), 10 μM lenalidomide, 72 hours
Method: MM cells were subjected to treatment with lenalidomide/DMSO for the indicated times or infected with lentiviral-shRNA. On days indicated, proliferation was assessed using the trypan blue exclusion method. Results are presented as ratios to DMSO, wildtype or sh_scramble controls.

[6] = tested on: del(5q) MDS bone marrow derived CD34+ cells; experiment: Apoptosis (Annexin V/PI) in in vitro propagated del(5q) MDS CD34+ cells; assay type: cell-based, human; conditions: 10 μM lenalidomide, erythroid differentiation, non-erythroid vs early erythroid (CD36+) cells
Method: Mononuclear cells from bone marrow aspirates were enriched for CD34^+ cells by magnetic bead selection (MACS, MiltenylBiotech) according to the manufacturer's instructions. CD34^+ cells were differentiated along the erythroid lineage essentially as known in the art. […] On day 7, 2 IU/ml erythropoietin (EPO Janssen-CILAG GmbH) was added to the cultures to stimulate erythropoiesis. Half medium changes were performed every third day and cells were harvested on day 14.
Cells were collected and washed with Annexin/PI buffer containing […], 1.62 mM CaCl2. Cell pellets were stained with CD34-FITC (BD Pharmingen, clone 581/CD34), CD147-PE (BD Pharmingen, done HIM6), CD33-PC5.5 (Beckmann Coulter, clone D3HL60.251), CD45 PE Cy7 (eBioscience, clone H130), CD36-APC Cy7 (BioLegend, clone 336213), primary CD235α-biotin (eBioscience, clone HIR2) and secondary streptavidin eFluor®450 (eBioscience) antibodies according to manufacturer's instructions. The combination of APC Annexin V (BD Pharmingen) and PI was added for the determination of apoptosis and necrosis. Single stained samples were used for compensation.
Flow cytometry was performed on a CyAn ADP LxP8 (Coulter-Cytomation) and data were analyzed using FlowJo software (TreeStar Inc.).

MMP7 = MMP7 secretion in MM cell culture supernatants (ELISA); assay type: cell-based, human; conditions: 10 μM, 96 h
Text: as §1

Zebrafish larvae = experiment: Zebrafish teratotoxicity phenotype at 3 dpf; assay type: in vivo; conditions: for Phenotype after CD147 knock-down by morpholino: 0.1 mM or 0.25 mM morpholino injected, 3 dpf
Method: Briefly, Zebrafish larvae were injected with different concentrations of splice-Morpholinos targeting all 3 predicted CD147 isoforms in zebrafish or treated with 400 μM Thalidomide on the day of fertilization. On day and 3 after fertilization, the phenotypes of the larvae were analysed.
The wildtype strain AB was used in all experiments. All embryos were kept at 28.5° C. in E3 media (5 mM NaCl, 0.17 mM KCl, 0.33 mM CaCl2, 0.33 mM MgSO4) supplemented with 10^−5% methylene blue. All experiments were performed in accordance with animal protection standards of the Ludwig-Maximilians University Munich and were approved by the government of Upper Bavaria (Regierung von Oberbayem, Munich, Germany).
Knock-down of CD147 in zebrafish was done by microinjection of 2-4 pl of 0.1 mM or 0.25 mM antisense morpholino oligo (Gene Tools, LLC) targeting either a splice junction of CD147 (CD147 splice MO; exonic sequence in upper case: 5′-aagaggtgaagaacatacAAGTGTT-3′ (SEQ ID NO: 18) or the ATG start codon (CD147 ATG MO; 5′-[…]-3′ (SEQ. ID NO: 39) at the 1 cell stage. Injected eggs and controls were cultured at 28° C. in E3 buffer. For each experiment, 50 eggs were injected.
For thalidomide treatment, fertilized embryos were randomly split into two groups at 3 hours post fertilization (hpf): One group was transferred into E3 containing 0.1% DMSO, the other group into E3 with 400 μM thalidomide (Sigma-Aldrich) and kept at 28.5° C. for 3 days.
Larvae were analyzed for Phenotypes at 3 days post fertilization (dpf). For each experiment, 10 embryos were treated. CD147 splice MO-injected larvae were compared to control larvae and thalidomide treated larvae were compared to DMSO controls. Larvae were anesthetized with Tricaine (0.016% w/v) and mounted in 3% methylcellulose on coverslips. DIC images were taken with an Axioplan2 compound microscope (Zeiss).

IKZF1/3 = experiment: Immunoblot analysis of IKZF1/IKZF3 in myeloma cells; assay type: cell-based, human; conditions: MM1S cells; 10 μM lenalidomide, 100 nM pomalidomide, 100 μM thalidomide
Method: HEK 293T and HeLa cells were grown in Dulbecco's modified Eagle's Medium (DMEM), each media containing 10% fetal bovine serum. […] The human multiple myeloma cell lines MM1.S, U266, KMS-12-BM, RPMI 8226 and JJN3 were cultured in RPMI-1640 with 10% FBS. […] Sf9 insect cells (Life technologies) were cultured in Sf-900 II serum-free medium (SFM, Life technologies) supplemented with 10% heat-inactivated FBS and 10 μg/ml gentamycin. High Five cells (Invitrogen) were cultured in Express Five SFM supplemented with 10 mM L-glutamine and 10 μg/ml gentamycin. All cells tested mycoplasma negative by a PCR detection method.
Cell samples were lysed in lysis buffer (NaCl 150 mM, Tris-HCl 50 mM, MgCl2 5 mM, EDTA 1 mM, INP-40 0.1%, Glycerol 5% and inhibitors) for whole cell lysates, immunoprecipitations or pulldown experiments. […] Briefly, the cellular lysates were centrifuged 15 min at 14 000 rpm at 4° C. to separate from cellular debris. Protein concentration in the supernatants was measured before Laemmli buffer was added. The lysates were separated by SDS-PAGE and blotted onto PVDF (polyvinylidene difluoride) membranes. After blotting, PVDF membranes were stained With. […] After washing the beads four times in lysis buffer, Laemmli buffer was added and proteins were analyzed by SDS-electrophoresis.

CD147 [7] = experiment: Semiquantitative RT-PCR verification of CD147 knockdown in zebrafish; assay type: in vivo; conditions: CD147 splice morpholino at indicated concentrations
Method: For verification of efficient CD147 knock-down in zebrafish embryos, total RNA of larvae injected with CD147 splice morpholino or control was extracted using the QIAshredder and RNeasy Kit (both Qiagen); cDNA synthesis was performed as described above. PCR reactions were performed on the peqSTAR2x gradient thermocycler (Peqlab) following standard procedures and using the following primers: […]
One fifth of the PCR reaction was loaded onto an agarose gel and subjected to gel electrophoresis.

[8] = lenalidomide-sensitive MM cell lines

## Nc1cccc2c1CN(C1CCC(=O)NC1=O)C2=O (centres unmarked) [lenalidomide]
VEGF; [8]
  VEGF secretion: significantly reduced
VEGF; resistant MM cell lines
  VEGF secretion: only minor effects
CD147 [1]
  CD147 de novo synthesis: no effect
  CD147 glycosylation as readout for maturation and membrane localization: substantially impaired
CD147/MCT1 complex; MM1S cells, 10 μM lenalidomide, time course
  Level of immature, core-glycosylated form of CD147: progressive accumulation
CD147/MCT1 complex; MM1S cells, different concentrations, 72 hours
  Dose dependence of CD147 and MCT1 destabilization: destabilizes CD147 and MCT1 in a dose dependent manner
CD147/MCT1 complex; MM1S cells, 10 μM lenalidomide
  Destabilization of CD147/MCT1: destabilize CD147/MCT1
CD147/MCT1 complex; lenalidomide-resistant MM lines (KMS12BM, RPMI 8226)
  CD147 and MCT1 expression upon lenalidomide exposure: remained unchanged
CD147/MCT1 complex; lenalidomide-sensitive MM lines (MM1S, U266)
  CD147 and MCT1 stability upon lenalidomide exposure: destabilization of CD147 and MCT1
MM cell lines [2]; [8]
  Intracellular lactate levels: significantly elevated
MM cell lines [2]; resistant MM cell lines
  Intracellular lactate levels: only minor effects
CD147 [3]
  CD147 cell surface expression: decreased
CD147 [4]
  CD147 surface expression in the erythropoietic compartment: attenuated to the level of non-del(5q) MDS samples
MM cell lines [5]
  Anti-myeloma effect of lenalidomide under induced overexpression of CD147 and MCT1: attenuated
[6]
  Lenalidomide-induced apoptosis by cell compartment: largely restricted to early erythroid cells
MMP7; [8]
  MMP7 secretion: significantly reduced
MMP7; resistant MM cell lines
  MMP7 secretion: only minor effects

## ATG MO: antisense morpholino oligo targeting the ATG start codon of CD147, 5′-GCGCCAAAGAGCTTCTTTTCCATGC-3′ (SEQ. ID NO: 39) (all phosphorodiamidate morpholino (PMO))
Zebrafish larvae
  Phenotype after CD147 knock-down by morpholino: identical phenotypes as thalidomide treatment

## Nc1cccc2c1C(=O)N(C1CCC(=O)NC1=O)C2=O (centres unmarked) [pomalidomide]
CD147/MCT1 complex; MM1S cells, 10 μM lenalidomide
  Destabilization of CD147/MCT1: destabilize CD147/MCT1
IKZF1/3
  IKZF1/3 degradation: restricted to lenalidomide and pomalidomide

## O=C1CCC(N2C(=O)c3ccccc3C2=O)C(=O)N1 (stereo not drawn) [thalidomide, α-N-phthalimido-glutarimide]
Zebrafish larvae; 400 μM thalidomide, 3 days post fertilization
  Teratotoxic phenotype: teratotoxic phenotype, including reduced size of head, fins, and eyes
CD147/MCT1 complex; MM1S cells, 10 μM lenalidomide
  Destabilization of CD147/MCT1: destabilize CD147/MCT1
IKZF1/3
  IKZF1/3 degradation: restricted to lenalidomide and pomalidomide

## splice MO: antisense morpholino oligo targeting a splice junction of CD147, 5′-aagaggtgaagaacatacAAGTGTT-3′ (SEQ ID NO: 18) (antisense AAGAGGTGAAGAACATACAAGTGTT; all phosphorodiamidate morpholino (PMO))
Zebrafish larvae
  Phenotype after CD147 knock-down by morpholino: identical phenotypes as thalidomide treatment
CD147 [7]
  CD147 knockdown (RT-PCR): efficient and dose dependent CD147 knockdown

## NS(=O)(=O)OC[C@@H]1C[C@@H](n2ccc3c(N[C@H]4CCc5ccccc54)ncnc32)C[C@@H]1O [MLN4924]
CD147 [1]
  CD147 stability or processing: no effect
